In publication PMC10285260, “Processive kinetics in the three-step lanosterol 14α-demethylation reaction catalyzed by human cytochrome P450 51A1” (The Journal of Biological Chemistry, 2023):
Values joined by “and” are separate entries in the source; they are usually repeats but may differ in a detail not shown here. Equal entries are not always repeated.

What was measured:
human P450 51A1 [1] = target: T1, human P450 51A1 (Homo sapiens, UniProt Q16850); test: Steady-state LC-UV assay of sterol oxidation to dihydro FF-MAS by reconstituted P450 51A1; settings: for Rate of FF-MAS formation (replicates): listed as 14-CH2OH dihydrolanosterol
T1 sequence (Q16850 1-509): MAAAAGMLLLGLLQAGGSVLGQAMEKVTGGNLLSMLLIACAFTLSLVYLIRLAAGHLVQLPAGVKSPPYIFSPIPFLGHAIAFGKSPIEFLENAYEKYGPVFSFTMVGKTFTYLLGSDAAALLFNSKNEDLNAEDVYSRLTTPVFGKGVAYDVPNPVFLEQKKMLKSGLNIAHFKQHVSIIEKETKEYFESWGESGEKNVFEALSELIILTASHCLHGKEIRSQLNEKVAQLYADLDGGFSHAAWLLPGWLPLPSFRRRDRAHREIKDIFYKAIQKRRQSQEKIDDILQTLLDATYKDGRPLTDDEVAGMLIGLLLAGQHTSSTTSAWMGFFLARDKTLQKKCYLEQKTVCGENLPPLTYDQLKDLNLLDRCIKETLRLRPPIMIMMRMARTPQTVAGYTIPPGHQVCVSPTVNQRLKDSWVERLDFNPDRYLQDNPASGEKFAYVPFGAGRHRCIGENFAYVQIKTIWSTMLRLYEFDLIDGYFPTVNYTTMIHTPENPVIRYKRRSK
Protocol: Steady-state incubations (500 μl) were generally done at 37 °C with 0.025 μM P450 51A1, 0.10 μM NADPH-P450 reductase, 100 μM L-α-dilauroyl-sn-glycero-3-phosphocholine, 50 mM potassium phosphate buffer (pH 7.4), 10% (v/v) glycerol, and an indicated concentration of each sterol (in 45% (w/v) HPCD). […] The sterols (stored at 4 °C) were prepared as described above and were heated to 37 °C and sonicated prior to use. Sterol working stocks were diluted in HPCD to ensure a constant concentration of cyclodextrin in each reaction. […] Accordingly, all reactions were done with this concentration of glycerol.
Reactions were preincubated (5 min, 37 °C) prior to initiation with an NADPH-regenerating system (0.5 mM NADP^+, 10 mM glucose 6-phosphate, and 2 μg ml^−1 glucose 6-phosphate dehydrogenase) ([60]) and were stopped after 5 min with the addition of CH2Cl2 (5 ml). (The NADPH-generating system, in addition to lower cost than NADPH, drives the reaction to avoid inhibition of the reductase by accumulated NADP^+). For the 14α-aldehyde, the times of preincubation and reaction were reduced (to 2 min and 1 min, respectively). The quenched mixture was centrifuged (2000g, 5 min), and 4 ml of the bottom (organic) layer was transferred to vials and brought to dryness under a stream of N2 gas. The dried residue was resuspended in CH3OH (100 μl) and was analyzed by UPLC using a 2.1 mm × 100 mm (1.7 μm) octadecylsilane (C18) column (held at 25 °C) and a Waters Acquity UPLC system. Samples (4 °C) were injected (10 μl) at a flow rate of 0.20 ml min^−1 using an isocratic mobile phase of CH3CN (only). The product (FF-MAS) was detected using a Waters Acquity photodiode array detector set at 250 nm (Fig. 4B). Data were processed using the MassLynx software (http://www.waters.com/waters/en_US/MassLynx-Mass-Spectrometry-Software-/nav.htm?cid=513164&locale=en_US), and the amount of product formed was calculated by comparison to a twelve-point dihydro FF-MAS standard curve. Determination of kcat and Km for each reaction was carried out by fitting the data to a Michaelis–Menten hyperbola, which was done using GraphPad Prism.
Incubations were run in triplicate, and the mean values (±SD) were calculated and plotted. The linear regression fits include the Prism error estimates for internal fitting (SE).

human P450 51A1 [2] = target: T1, human P450 51A1; test: Single-turnover rapid-quench kinetics of [3-3H]-dihydrolanosterol oxidation (radio-HPLC); type: biochemical; parameters: made in house; host or cells: Escherichia coli
Protocol: All products were separated and quantified by radio-HPLC (Fig. S24).
Samples (held at 4 °C) were injected (45 μl) onto a Nova-Pak 3.9 mm × 150 mm (4 μm) octadecylsilane (C18) HPLC column (held at 23 °C). The products were separated at a flow rate of 1.0 ml min^−1 using an isocratic mobile phase composed of CH3CN (only) as was done for the LC-UV assays (above). The eluate from the column was mixed (1:2, v-v) with FlowLogic U scintillation cocktail, and radioactivity (^3H) was detected on a β-RAM Model 5 system (IN/US, LabLogic) (Fig. S24). Product formation was assessed as the relative contribution of each peak (in CPM) to the summed peak area of substrate and product(s).
The single-turnover experiments were performed using a KinTek rapid quench-flow apparatus (KinTek). This machine functions by forcing equal volumes (∼19 μl) of two separate solutions into a central mixing chamber, where the components are allowed to incubate for a predetermined period of time before an excess volume of quench solution (∼160 μl) stops the reaction and expels the mixture from the apparatus. […] After the predetermined incubation period, the reaction (37 °C) was quenched with HCl (1 M), and the mixture (∼200 μl) was collected into vials. The products of five identical reactions (time points) were combined and were extracted into CH2Cl2 (5 ml). An aliquot (4 ml) of the lower (organic) layer was removed into a fresh vial, and the extraction was repeated to maximize sample recovery. The pooled organic fraction (∼8 ml) was brought to dryness under a stream of N2 gas, and the residue was redissolved in 60 μl of CH3OH and transferred to LC vials for analysis.

CC(C)CCCC(C)[C@H]1CC[C@@]2(CO)C3=C(CC[C@]12C)[C@@]1(C)CC[C@H](O)C(C)(C)C1CC3 (stereo partly drawn) [14α-CH2OH dihydrolanosterol, 24,25-dihydro-14α-CH2OH lanosterol]
kcat relative to dihydrolanosterol (human P450 51A1 [1]; oxidation to dihydro FF-MAS): ~1.5 fold
kcat/Km relative to dihydrolanosterol (human P450 51A1 [1]; oxidation to dihydro FF-MAS): ~1.5 fold
Rate of FF-MAS formation (replicates) (human P450 51A1 [1]; substrate 0.25 µM): 1.4 min-1 (2×) and 1.5 min-1
Rate of FF-MAS formation (replicates) (human P450 51A1 [1]; substrate 0.50 µM): 3.1 min-1 and 3.0 min-1 (2×)
Rate of FF-MAS formation (replicates) (human P450 51A1 [1]; substrate 0.75 µM): 4.7 min⁻¹ and 4.5 min⁻¹ and 3.9 min⁻¹
Rate of FF-MAS formation (replicates) (human P450 51A1 [1]; substrate 1.00 µM): 6.5 min-1 (2×) and 7.1 min-1
Rate of FF-MAS formation (replicates) (human P450 51A1 [1]; substrate 1.50 µM): 8.9 min⁻¹ and 8.6 min⁻¹ and 11.1 min⁻¹
Rate of FF-MAS formation (replicates) (human P450 51A1 [1]; substrate 2.50 µM): 16.2 min⁻¹ and 16.4 min⁻¹ and 16.5 min⁻¹
Rate of FF-MAS formation (replicates) (human P450 51A1 [1]; substrate 5.00 µM): 25.1 min⁻¹ and 20.7 min⁻¹ and 25.9 min⁻¹
Rate of FF-MAS formation (replicates) (human P450 51A1 [1]; substrate 7.50 µM): 25.1 min⁻¹ and 26.3 min⁻¹ and 27.2 min⁻¹
Rate of FF-MAS formation (replicates) (human P450 51A1 [1]; substrate 10.00 µM): 26.4 min⁻¹ and 27.4 min⁻¹ and 26.6 min⁻¹
Rate of FF-MAS formation (replicates) (human P450 51A1 [1]; substrate 15.00 µM): 29.2 min⁻¹ and 33.0 min⁻¹ and 31.0 min⁻¹
concentration in single-turnover reaction (human P450 51A1 [2]; time 0.05 s, start 7 µM dihydrolanosterol): 2.2428 µM
concentration in single-turnover reaction (human P450 51A1 [2]; time 0.1 s): 3.1584 µM
concentration in single-turnover reaction (human P450 51A1 [2]; time 0.15 s): 2.7482 µM
concentration in single-turnover reaction (human P450 51A1 [2]; time 0.2 s): 2.961 µM
concentration in single-turnover reaction (human P450 51A1 [2]; time 0.3 s): 2.3331 µM
concentration in single-turnover reaction (human P450 51A1 [2]; time 0.4 s): 1.9978 µM
concentration in single-turnover reaction (human P450 51A1 [2]; time 0.6 s): 1.1711 µM
concentration in single-turnover reaction (human P450 51A1 [2]; time 0.8 s): 0.9849 µM
concentration in single-turnover reaction (human P450 51A1 [2]; time 1 s): 0.4431 µM
concentration in single-turnover reaction (human P450 51A1 [2]; time 1.2 s): 0 µM
concentration in single-turnover reaction (human P450 51A1 [2]; time 1.6 s): 0 µM
concentration in single-turnover reaction (human P450 51A1 [2]; time 2 s): 0 µM
concentration in single-turnover reaction (human P450 51A1 [2]; time 3 s): 0 µM
concentration in single-turnover reaction (human P450 51A1 [2]; time 4 s): 0 µM
concentration in single-turnover reaction (human P450 51A1 [2]; time 7 s): 0 µM
